Experimental data published in US6962939B1, “Condensed indoline derivatives and their use as 5HT, in particular 5HT2C, receptor ligands” (Vernalis Research Limited, priority 1999, dated 2005).
Where a name gives a salt, the structure may show the parent alone.

Legend:
[1] = prolonged period (greater than 6 months); cited from earlier work
human 5-HT2B receptors = target: T1, human 5-HT2B receptors (Homo sapiens, UniProt P41595); assay: Binding to 5-HT2B receptor, [3H]-5-HT, CHO cell line; conditions: read-out: Ki (2B)
T1 construct: expressed in transfected cells; host or cells: CHO cell line
T1 sequence (P41595 whole entry): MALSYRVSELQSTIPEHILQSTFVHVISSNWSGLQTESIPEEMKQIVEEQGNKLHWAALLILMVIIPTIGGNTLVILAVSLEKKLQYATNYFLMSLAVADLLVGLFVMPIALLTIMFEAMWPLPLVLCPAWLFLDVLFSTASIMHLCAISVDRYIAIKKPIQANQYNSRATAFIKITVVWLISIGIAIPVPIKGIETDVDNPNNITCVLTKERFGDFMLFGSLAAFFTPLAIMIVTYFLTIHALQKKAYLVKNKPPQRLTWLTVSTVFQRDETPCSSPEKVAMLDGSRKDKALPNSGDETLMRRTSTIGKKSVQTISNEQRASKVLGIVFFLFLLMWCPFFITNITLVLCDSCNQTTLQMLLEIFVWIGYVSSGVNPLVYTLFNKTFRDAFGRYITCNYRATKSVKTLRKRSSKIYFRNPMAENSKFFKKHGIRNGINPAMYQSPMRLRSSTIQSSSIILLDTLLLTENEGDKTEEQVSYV
Description: (§1) The binding of compounds of formula (1) to serotonin receptors was determined in vitro by standard methods. The preparations were investigated in accordance with the assays given hereinafter.
Method (b): For the binding to the 5-HT2B receptor the 5-HT2B receptors were radiolabeled with [3H]-5-HT. The affinity of the compounds for human 5-HT2B receptors in a CHO cell line was determined according to the procedure of K. Schmuck, C. Ullmer, P. Engels and H. Lubbert, FEBS Lett., 1994, 342, 85–90.

h5-HT2C receptor = target: T2, h5-HT2C receptor (Homo sapiens, UniProt P28335); assay: Functional activity, FLIPR calcium assay, CHO cells expressing h5-HT2C; type: cell-based; conditions: for Emax: CHO, read-out: h5-HT2C Relative Efficacy (%); for EC50: FLIPR, CHO cells, Fluo 3-AM
T2 construct: expressed in transfected cells; host or cells: CHO cells
T2 sequence (P28335 33-458): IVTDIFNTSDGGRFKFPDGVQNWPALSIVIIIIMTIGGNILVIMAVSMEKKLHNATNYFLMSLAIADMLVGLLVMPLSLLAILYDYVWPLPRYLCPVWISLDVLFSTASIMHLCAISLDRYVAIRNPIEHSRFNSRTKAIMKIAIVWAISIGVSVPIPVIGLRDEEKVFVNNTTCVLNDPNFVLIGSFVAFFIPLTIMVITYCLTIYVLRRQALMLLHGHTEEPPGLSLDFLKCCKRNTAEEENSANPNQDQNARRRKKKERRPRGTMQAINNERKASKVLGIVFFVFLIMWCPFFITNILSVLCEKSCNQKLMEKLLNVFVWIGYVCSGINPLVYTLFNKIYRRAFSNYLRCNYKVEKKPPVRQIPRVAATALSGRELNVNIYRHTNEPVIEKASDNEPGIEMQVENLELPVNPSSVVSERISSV
Description: (§2) The functional activity of compounds of formula (I) was assayed using a Fluorimetric Imaging Plate reader (FLIPR) in the following manner.
(§3) CHO cells expressing either the h5-HT2C or h5-HT2A receptors were counted and plated into standard 96 well microtitre plates before the day of testing to give a confluent monolayer. The following day the cells were dye loaded with the calcium sensitive dye Fluo 3-AM by incubation with serum free culture maintenance media containing plumnic acid and Fluo 3-AM dissolved in DMSO at 37° C. in a CO2 incubator at 95% humidity for approximately 90 minutes. Unincorporated dye was removed by washing with Hanks balanced salt solution containing 20 mM HEPES and 2.5 mM probenecid (the assay buffer) using an automated cell washer to leave a total volume of 100 μl/well.
(§4) The drug (dissolved in 50 μl of assay buffer) was added at a rate of 70 μL/sec to each well of the FLIPR 96 well plate during fluorescence measurements. The measurements are taken at 1 sec intervals and the maximum fluorescent signal was measured (approx 10–15 secs after drug addition) and compared with the response produced by 10 μM 5-HT (defined as 100%) to which it is expressed as a percentage response (relative efficacy). Dose response curves were constructed using Graphpad Prism (Graph Software Inc.).

5-HT2A receptor = target: T3, 5-HT2A receptor (Homo sapiens, UniProt P28223); assay: Binding to 5-HT2A receptor, [125I]-DOI, CHO cell line; conditions: read-out: Ki (2A)
T3 construct: expressed in transfected cells; host or cells: CHO cell line
T3 sequence (P28223 whole entry): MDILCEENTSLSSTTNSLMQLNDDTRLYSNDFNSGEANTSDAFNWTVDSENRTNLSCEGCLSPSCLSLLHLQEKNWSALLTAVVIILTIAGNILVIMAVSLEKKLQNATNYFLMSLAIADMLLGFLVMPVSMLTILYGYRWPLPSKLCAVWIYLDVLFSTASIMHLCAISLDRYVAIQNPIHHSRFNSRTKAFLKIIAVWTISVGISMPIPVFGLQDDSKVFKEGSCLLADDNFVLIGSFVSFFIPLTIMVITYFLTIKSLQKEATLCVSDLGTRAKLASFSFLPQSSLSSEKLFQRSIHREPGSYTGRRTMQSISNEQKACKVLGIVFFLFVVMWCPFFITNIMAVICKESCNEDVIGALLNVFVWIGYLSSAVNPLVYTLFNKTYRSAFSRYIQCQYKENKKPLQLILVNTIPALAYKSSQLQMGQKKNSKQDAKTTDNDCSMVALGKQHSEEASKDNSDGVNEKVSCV
Description: as §1
Method (c): For the binding to the 5-HT2A receptor the 5-HT2A receptors were radiolabeled with [^125I]-DOI. The affinity of the compounds for 5-HT2A receptors in a CHO cell line was determined according to the procedure of D. J. McKenna and S. J. Peroutka, J. Neurosci., 1989, 9/10, 3482–90.

h5-HT2A receptor = target: T4, h5-HT2A receptor (Homo sapiens, UniProt P28223); assay: Functional activity, FLIPR calcium assay, CHO cells expressing h5-HT2A; type: cell-based; conditions: for Emax: CHO, read-out: h5-HT2A Relative Efficacy (%); for EC50: FLIPR, CHO cells, Fluo 3-AM
T4 construct: expressed in transfected cells; host or cells: CHO cells
T4 sequence (P28223 whole entry): as above
Description: as §2, §3, §4

5-HT2C receptor = target: T5, 5-HT2C receptor (Homo sapiens, UniProt P28335); assay: Binding to 5-HT2C receptor, [3H]-5-HT, CHO cell line; conditions: read-out: Ki (2C)
T5 construct: expressed in transfected cells; host or cells: CHO cell line
T5 sequence (P28335 33-458): T2 sequence (P28335 33-458)
Description: as §1
Method (a): For the binding to the 5-HT2C receptor the 5-HT2C receptors were radiolabeled with [^3H]-5-HT. The affinity of the compounds for 5-HT2C receptors in a CHO cell line was determined according to the procedure of D. Hoyer, G. Engel and H. O. Kalknan, European J. Pharmacol., 1985, 118, 13–23.

[2] = system: obese male and female subjects; conditions: subchronic treatment for a 14 day period; cited from earlier work
female volunteers = conditions: single injection; cited from earlier work
rats = conditions: cited from earlier work
[3] = maximum fluorescent signal relative to 10 μM 5-HT (defined as 100%)

Compound	Emax (h5-HT2C receptor; [3]) [%]	EC50 (h5-HT2C receptor) [nM]	Emax (h5-HT2A receptor; [3]) [%]	EC50 (h5-HT2A receptor) [nM]	melting point	further results
CCNC(C)Cc1cccc(C(F)(F)F)c1 (stereo not drawn) [fenfluramine]	–	–	–	–	–	food intake and body weight [1]: decrease food intake and body weight
C[C@H](N)CN1CCc2ccc3c(c21)OCCO3 [Compound 6, (S)-1-(2,3,7,8-Tetrahydro-9H-1,4-dioxino[2,3-g]indol-9-yl)2-propylamine fumarate]	90	47	71	312	–	Ki (human 5-HT2B receptors): 218 nM; Ki (5-HT2A receptor): 223 nM; Ki (5-HT2C receptor): 70 nM
C[C@H](N)CN1CCc2ccc3c(c21)CCCC3 (as salt: fumarate) [Compound 7, (S)-1-(2,3,6,7,8,9-Hexabydro-1H-benz[g]indol-1-yl)]-2-propylamine, fumarate]	–	–	–	–	178 to 182 °C	–
C[C@H](N)CN1CCc2ccc3c(c21)CCO3 (as salt: fumarate) [Compound 3, (S)-1-(2,3,7,8-Tetrahydrofuro[2,3-g]indol-1-yl)-2-propylamine fumarate]	–	–	–	–	215.5 to 217 °C (dec.)	–
Clc1cccc(N2CCNCC2)c1 [mCPP, m-chlorophenylpiperazine]	–	–	–	–	–	appetite and body weight of obese subjects [2]: decreased the appetite and body weight; food intake in female volunteers (female volunteers): decreased food intake; appearance of the behavioural satiety sequence (rats; rat, in vivo): accelerate the appearance of the behavioural satiety sequence; food intake in rats (rats; rats): reduce food intake
C[C@H](N)CN1CCc2ccc3c(c21)CCO3 [Compound 3, (S)-1-(2,3,7,8-Tetrahydrofuro[2,3-g]indol-1-yl)-2-propylamine fumarate]	94	6	81	138	–	–
C[C@H](N)CN1CCc2ccc3c(c21)CCCO3 (as salt: fumarate) [Compound 4, (S)-1-(2,3,7,8-Tetrahydro-9H-pyrano[2,3-g]indol-1-yl)-2-propylamine fumarate]	–	–	–	–	168 to 169 °C	–
CCN[C@@H](C)Cc1cccc(C(F)(F)F)c1 [dexfenfluramine]	–	–	–	–	–	food intake and body weight [1]: decrease food intake and body weight
C[C@H](N)CN1CCc2ccc3c(c21)CCS3 (as salt: fumarate) [Compound 5, (S)-1-(2,3,7,8-Tetrahydrothieno[2,3-g]indol-1-yl)-2-propylamine fumarate]	–	–	–	–	188 to 189.5 °C (dec.)	–
CCC1CN(CC(C)N)c2c1ccc1c2CCO1 (single isomer, unassigned) [Compound 10, [2S,3′(S or R)]-1-(3-Ethyl-2,3,7,8-tetrahydrofuro[2,3-g]indol-1-yl)-2-propylamine fumarate]	–	51	–	403	–	h5-HT2C Relative Efficacy (%) (h5-HT2C receptor; [3]): 67%; h5-HT2A Relative Efficacy (%) (h5-HT2A receptor; [3]): 15%
C[C@H](N)CN1CCc2ccc3c(c21)CCCC3 [Compound 7, (S)-1-(2,3,6,7,8,9-Hexabydro-1H-benz[g]indol-1-yl)]-2-propylamine, fumarate]	68	440	14	1830	–	–
C[C@H](N)CN1CCc2ccc3c(c21)CCC3 (as salt: fumarate) [Compound 8, (S)-1-[1-(1,2,3,6,7,8-Hexabydrocyclopent[g]indolyl)]-2-propylamine fumarate]	–	–	–	–	182 °C (dec.)	–
C[C@H](N)CN1CCc2ccc3ccccc3c21 [Compound 1, (S)-1-(Benz[g]indolin-1-yl)-2-propylamine hemi-fumarate]	79	158	51	1370	–	Ki (human 5-HT2B receptors): 39 nM; Ki (5-HT2A receptor): 173 nM; Ki (5-HT2C receptor): 107 nM
C[C@H](N)CN1CCc2ccc3c(c21)CCS3 [Compound 5, (S)-1-(2,3,7,8-Tetrahydrothieno[2,3-g]indol-1-yl)-2-propylamine fumarate]	86	0.4	77	48	–	–
C[C@H](N)CN1CCc2ccc3c(c21)OCCO3 (as salt: fumarate) [Compound 6, (S)-1-(2,3,7,8-Tetrahydro-9H-1,4-dioxino[2,3-g]indol-9-yl)2-propylamine fumarate]	–	–	–	–	173 to 174 °C (dec.)	–
C[C@H](N)CN1CCc2ccc3c(c21)CCCO3 [Compound 4, (S)-1-(2,3,7,8-Tetrahydro-9H-pyrano[2,3-g]indol-1-yl)-2-propylamine fumarate]	89	47	66	505	–	–
CCC1CN(CC(C)N)c2c1ccc1c2CCO1 (single isomer, unassigned) [Compound 9, [2S3′(R or S)]-1-(3-Ethyl-2,3,7,8-tetrahydrofuro[2,3-g]indol-1-yl)-2-propylamine fumarate]	74	50	22	1140	–	–
C[C@H](N)CN1CCc2ccc3c(c21)CCC3 [Compound 8, (S)-1-[1-(1,2,3,6,7,8-Hexabydrocyclopent[g]indolyl)]-2-propylamine fumarate]	69	217	0	≥ 10000	–	–
C[C@@H](N)CN1CCc2ccc3ccccc3c21 [Compound 2, (R)-1-(Benz[g]indolin-1-yl)-2-propylamine hemi-fumarate]	44	1720	–	> 10000	–	–
